Patent US20060148730A1, “Method of treating tuberculosis” (priority 2003, published 2006)
In brackets after ≈: the same amount, converted by molar mass.

system: M. tuberculosis H37Rv; assay: MIC vs. M. tuberculosis H37Rv, microplate Alamar Blue assay (MABA); format: cell-based; details: not given

Row | Compound | MIC against M. tuberculosis [µM]
1 | cethromycin [ABT773, reference compound] | 3

same assay, conditions: Mycobacterium tuberculosis, H37RV, Table 4; read-out: MIC

Row | Compound | MIC [µM]
2 | CC[C@H]1OC(=O)[C@H](C)[C@@H](O[C@H]2CC(C)(OC)[C@@H](O)[C@H](C)O2)[C@H](C)[C@@H](O[C@@H]2O[C@H](C)C[C@H](N(C)C)[C@H]2O)[C@](C)(OC)C[C@@H](C)C(=O)[C@H](C)[C@H]2N(CC/C=C\c3ccccc3)C(=O)O[C@]12C (stereo partly drawn) [ITR0020] | 6.6 (≈ 5.96 µg/mL)
3 | CC[C@H]1OC(=O)[C@H](C)[C@@H](OC2CC(C)(OC)C(O)C(C)O2)[C@H](C)[C@@H](OC2OC(C)CC(N(C)C)C2OC(=O)Nc2ccccc2)[C@](C)(OC)C[C@@H](C)C(=O)[C@H](C)[C@@H](O)[C@]1(C)O (stereo partly drawn) [Compound 3ZZ19] | 12 (≈ 10.4 µg/mL)
4 | CC[C@H]1OC(=O)[C@H](C)[C@@H](OC2CC(C)(OC)C(OC(=O)c3ccccc3)C(C)O2)[C@H](C)[C@@H](OC2OC(C)CC(N(C)C)C2O)[C@](C)(OC)C[C@@H](C)C(=O)[C@H](C)[C@H]2N(NCCCc3ccnc4ccccc34)C(=O)O[C@]12C (stereo partly drawn) [Compound 1SH53a] | 1.69 (≈ 1.79 µg/mL)

same assay, conditions: Mycobacterium tuberculosis, H37RV, Table 5; read-out: MIC

Row | Compound | MIC [µM]
5 | CC[C@H]1OC(=O)[C@H](C)[C@@H](O)[C@H](C)[C@@H](OC2OC(C)CC(N(C)C)C2OC(=O)Nc2ccccc2)[C@](C)(OC)C/C(C)=C2/O[C@@]1(C)C=C2C (stereo partly drawn) [Compound 1GYG9] | 16 (≈ 10.8 µg/mL)

same assay, conditions: Table 1a, 11,12-carbamate derivatives; anti-TB activity; read-out: MIC

Row | Compound | MIC [µM]
6 | cethromycin [ABT773, reference compound] | 3
7 | CC[C@H]1OC(=O)[C@H](C)C(=O)[C@H](C)[C@@H](O[C@@H]2O[C@H](C)C[C@H](N(C)C)[C@H]2O)[C@](C)(OC)C[C@@H](C)C(=O)[C@H](C)[C@H]2N(CCCCn3ccnc3)C(=O)O[C@]12C [RU61205] | 112 (≈ 82.3 µg/mL)
8 | CC[C@H]1OC(=O)[C@H](C)C(=O)[C@H](C)[C@@H](O[C@@H]2O[C@H](C)C[C@H](N(C)C)[C@H]2O)[C@](C)(OC)C[C@@H](C)C(=O)[C@H](C)[C@H]2N(CCCn3cnc4c3c(=O)n(C)c(=O)n4C)C(=O)O[C@]12C [RU66740] | >128

same assay, conditions: Table 3; parallel-synthesis carbazate library products, SPE purified; read-out: MIC

Row | Compound | MIC [µM]
9 | CC[C@H]1OC(=O)[C@H](C)[C@@H](O[C@H]2CC(C)(OC)[C@@H](O)[C@H](C)O2)[C@H](C)[C@@H](O[C@@H]2O[C@H](C)C[C@H](N(C)C)[C@H]2O)[C@](C)(OC)C[C@@H](C)C(=O)[C@H](C)[C@H]2N(/N=C/c3c(C)noc3-c3ccccc3)C(=O)O[C@]12C (stereo partly drawn) [C12′] | 9 (≈ 8.61 µg/mL)
10 | CC[C@H]1OC(=O)[C@H](C)[C@@H](O[C@H]2CC(C)(OC)[C@@H](O)[C@H](C)O2)[C@H](C)[C@@H](O[C@@H]2O[C@H](C)C[C@H](N(C)C)[C@H]2O)[C@](C)(OC)C[C@@H](C)C(=O)[C@H](C)[C@H]2N(NCc3sccc3Oc3ccccc3)C(=O)O[C@]12C (stereo partly drawn) [G4′] | 13 (≈ 12.7 µg/mL)
11 | CC[C@H]1OC(=O)[C@H](C)[C@@H](O[C@H]2CC(C)(OC)[C@@H](O)[C@H](C)O2)[C@H](C)[C@@H](O[C@@H]2O[C@H](C)C[C@H](N(C)C)[C@H]2O)[C@](C)(OC)C[C@@H](C)C(=O)[C@H](C)[C@H]2N(NCc3cncn3C)C(=O)O[C@]12C (stereo partly drawn) [B5′] | >27
12 | CCCCc1nc(CNN2C(=O)O[C@]3(C)[C@@H](CC)OC(=O)[C@H](C)[C@@H](O[C@H]4CC(C)(OC)[C@@H](O)[C@H](C)O4)[C@H](C)[C@@H](O[C@@H]4O[C@H](C)C[C@H](N(C)C)[C@H]4O)[C@](C)(OC)C[C@@H](C)C(=O)[C@H](C)[C@@H]23)c(Cl)[nH]1 (stereo partly drawn) [B7′] | >19
13 | CC[C@H]1OC(=O)[C@H](C)[C@@H](O[C@H]2CC(C)(OC)[C@@H](O)[C@H](C)O2)[C@H](C)[C@@H](O[C@@H]2O[C@H](C)C[C@H](N(C)C)[C@H]2O)[C@](C)(OC)C[C@@H](C)C(=O)[C@H](C)[C@H]2N(NCc3cccnc3NC(=O)C(C)(C)C)C(=O)O[C@]12C (stereo partly drawn) [E4′] | >27
14 | CC[C@H]1OC(=O)[C@H](C)[C@@H](O[C@H]2CC(C)(OC)[C@@H](O)[C@H](C)O2)[C@H](C)[C@@H](O[C@@H]2O[C@H](C)C[C@H](N(C)C)[C@H]2O)[C@](C)(OC)C[C@@H](C)C(=O)[C@H](C)[C@H]2N(NCc3sc(C)nc3C)C(=O)O[C@]12C (stereo partly drawn) [F5′] | >19
15 | CC[C@H]1OC(=O)[C@H](C)[C@@H](O[C@H]2CC(C)(OC)[C@@H](O)[C@H](C)O2)[C@H](C)[C@@H](O[C@@H]2O[C@H](C)C[C@H](N(C)C)[C@H]2O)[C@](C)(OC)C[C@@H](C)C(=O)[C@H](C)[C@H]2N(NCc3cc(Cl)cc(Br)c3O)C(=O)O[C@]12C (stereo partly drawn) [G8′] | 14 (≈ 14.1 µg/mL)
16 | CC[C@H]1OC(=O)[C@H](C)[C@@H](O[C@H]2CC(C)(OC)[C@@H](O)[C@H](C)O2)[C@H](C)[C@@H](O[C@@H]2O[C@H](C)C[C@H](N(C)C)[C@H]2O)[C@](C)(OC)C[C@@H](C)C(=O)[C@H](C)[C@H]2N(NCc3nccn3C)C(=O)O[C@]12C (stereo partly drawn) [B3′] | >18
17 | CC[C@H]1OC(=O)[C@H](C)[C@@H](O[C@H]2CC(C)(OC)[C@@H](O)[C@H](C)O2)[C@H](C)[C@@H](O[C@@H]2O[C@H](C)C[C@H](N(C)C)[C@H]2O)[C@](C)(OC)C[C@@H](C)C(=O)[C@H](C)[C@H]2N(NCc3ccc4c(c3)nnn4C)C(=O)O[C@]12C (stereo partly drawn) [H7′] | >22
18 | CC[C@H]1OC(=O)[C@H](C)[C@@H](O[C@H]2CC(C)(OC)[C@@H](O)[C@H](C)O2)[C@H](C)[C@@H](O[C@@H]2O[C@H](C)C[C@H](N(C)C)[C@H]2O)[C@](C)(OC)C[C@@H](C)C(=O)[C@H](C)[C@H]2N(NCc3cccn3-c3ccc(Cl)cc3)C(=O)O[C@]12C (stereo partly drawn) [E12′] | 3.4 (≈ 3.32 µg/mL)
19 | CC[C@H]1OC(=O)[C@H](C)[C@@H](O[C@H]2CC(C)(OC)[C@@H](O)[C@H](C)O2)[C@H](C)[C@@H](O[C@@H]2O[C@H](C)C[C@H](N(C)C)[C@H]2O)[C@](C)(OC)C[C@@H](C)C(=O)[C@H](C)[C@H]2N(NC/C=C/c3cc(OC)c(O)c(OC)c3)C(=O)O[C@]12C (stereo partly drawn) [A6′] | 10.2 (≈ 10 µg/mL)
20 | CC[C@H]1OC(=O)[C@H](C)[C@@H](O[C@H]2CC(C)(OC)[C@@H](O)[C@H](C)O2)[C@H](C)[C@@H](O[C@@H]2O[C@H](C)C[C@H](N(C)C)[C@H]2O)[C@](C)(OC)C[C@@H](C)C(=O)[C@H](C)[C@H]2N(NCc3ccnc4ccccc34)C(=O)O[C@]12C (stereo partly drawn) [D11′] | 16 (≈ 14.9 µg/mL)

same assay, conditions: Table 4; read-out: MIC

Row | Compound | MIC [µM]
21 | CCC1OC(=O)C(C)C(OC2CC(C)(OC)C(O)C(C)O2)C(C)C(OC2OC(C)CC(N(C)C)C2O)C(C)(OC)CC(C)C(=NOC2CCCN(C(=O)OCc3ccccc3)C2)C(C)C(O)C1(C)O (stereo not drawn) [ITR0011] | 6.0 (≈ 5.88 µg/mL)

same assay, conditions: Table 5; read-out: MIC

Row | Compound | MIC [µM]
22 | CCC1OC(=O)C(C)C(OC2CC(C)(OC)C(O)C(C)O2)C(C)C(OC2OC(C)CC(N(C)C)C2O)C(C)(O)CC(C)C(=NN=Cc2ccc(SC)cc2)C(C)C(O)C1(C)O (stereo not drawn) [Compound 1OK121] | 12 (≈ 10.6 µg/mL)
23 | CCC1OC(=O)C(C)C(OC2CC(C)(OC)C(O)C(C)O2)C(C)C(OC2OC(C)CC(N(C)C)C2OC(=S)Nc2ccccc2)C(C)(OC)CC(C)C(=O)C(C)C(O)C1(C)O (stereo not drawn) [Compound 3ZZ61b] | 7.3 (≈ 6.45 µg/mL)
24 | C#CCON=C1C(C)CC(C)(OC)C(OC2OC(C)CC(N(C)C)C2O)C(C)C(OC2CC(C)(OC)C(O)C(C)O2)C(C)C(=O)OC(CC)C(C)(O)C(O)C1C (stereo not drawn) [Compound 1GY17] | 13 (≈ 10.4 µg/mL)
25 | CCC1OC(=O)C(C)C(OC2CC(C)(OC)C(O)C(C)O2)C(C)C(OC2OC(C)CC(N(C)C)C2O)C(C)(O)CC(C)C(=NN=Cc2cccc(OC(F)(F)F)c2)C(C)C(O)C1(C)O (stereo not drawn) [Compound 1OK109] | 11 (≈ 10.1 µg/mL)
26 | CC[C@H]1OC(=O)[C@H](C)[C@@H](O)[C@H](C)[C@@H](O[C@@H]2O[C@H](C)C[C@H](N(C)C)[C@H]2O)[C@](C)(OC)C[C@@H](C)C(=NOCCCc2ccccc2)[C@H](C)[C@@H](O)[C@]1(C)O [Compound 2GY15] | 6.3 (≈ 4.55 µg/mL)
27 | CCC1OC(=O)C(C)C(OC2CC(C)(OC)C(O)C(C)O2)C(C)C(OC2OC(C)CC(N(C)C)C2OC(=S)Nc2ccccc2)C(C)(O)CC(C)C(=NOCOCCOC)C(C)C(O)C1(C)O (stereo not drawn) [Compound 3ZZ59b] | 5.6 (≈ 5.44 µg/mL)
